Where two headings read alike, the source gives them in different places.
Experiments:
[1] = target: T1, F17aG receptor-binding domain (Escherichia coli, UniProt Q99003); assay: biochemical; conditions: SPR steady state, 25 °C, pH 7.4
T1 construct: variants of the lectin domains with oligolysine (4Lys) tails have been constructed; made in house; host or cells: E. coli (periplasm)
Description: (§1) The affinity profiles were determined by surface plasmon resonance (SPR) measurements using a BiaCore 3000 instrument (GE Healthcare). […] The proteins were covalently immobilized on CM5 sensor chips (Biacore AB) to an average density of 2000 RU (resonance units in pg/mm^2). On each chip, one flow cell was coated with a camel single domain antibody for use as a reference cell. The other three flow cells (Fc2, Fc3 and Fc4) were coated with three different F17G variants. Carbohydrate concentrations ranging from 10 µM to 10 mM in running buffer (20 mM Hepes, pH 7.4; 150 mM NaCl; 3 mM EDTA and 0.005% surfactant Tween 20) were incubated for one minute on all flow cells simultaneously, at 25 °C and at a flow rate of 30 µL/min. Complete dissociation of the carbohydrates in running buffer was verified before starting a new binding cycle. All binding cycles were performed in duplicate, including a zero concentration cycle (injection of pure running buffer). All analysis was done using the BIAeval software. In each case the equilibrium resonance signal from the reference cell was subtracted from that of the various F17G flow cells (2-1, 3-1, 4-1). A Langmuir binding isotherm with a 1:1 stoichiometry was fitted to the data, from which the equilibrium dissociation constants, Kd, were obtained.

[2] = target: F17eG receptor-binding domain; assay: Surface plasmon resonance steady-state affinity, immobilized F17eG; parameters: species or system Escherichia coli; conditions: SPR steady state, 25 °C, pH 7.4
Description: as §1

[3] = target: F17fG receptor-binding domain (Escherichia coli, UniProt Q9RH91); assay: Surface plasmon resonance steady-state affinity, immobilized F17fG
Chain of F17fG receptor-binding domain (Q9RH91 23-198): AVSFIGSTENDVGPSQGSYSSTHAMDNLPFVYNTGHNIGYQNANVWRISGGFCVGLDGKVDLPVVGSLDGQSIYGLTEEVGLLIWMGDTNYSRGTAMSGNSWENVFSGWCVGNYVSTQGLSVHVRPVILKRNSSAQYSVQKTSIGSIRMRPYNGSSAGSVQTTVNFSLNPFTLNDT
Description: as §1

F17eG lectin domain = assay: CFG mammalian printed glycan array version 2 (experiment 400), F17eG; assay type: binding, Escherichia coli; conditions: CFG glycan array version 2; F17G at 200 µg/mL; SEM in parentheses
Text: (§2) The slide was dried under a stream of nitrogen.

F17aG lectin domain = F17aG lectin domain (Escherichia coli, UniProt Q99003); conditions: CFG glycan array version 2; F17G at 200 µg/mL; SEM in parentheses
Chain of F17aG lectin domain (Q99003 23-199): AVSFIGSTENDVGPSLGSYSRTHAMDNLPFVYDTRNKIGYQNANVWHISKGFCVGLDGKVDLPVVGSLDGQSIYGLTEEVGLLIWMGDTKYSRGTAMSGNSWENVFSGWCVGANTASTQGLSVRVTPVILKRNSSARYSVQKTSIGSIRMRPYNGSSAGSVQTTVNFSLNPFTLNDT
Description: (§3) A microarray presenting 264 different glycans (mammalian printed array version 2) was used to evaluate if the F17G variant lectin domains differ in the range of glycan receptors that they recognize, thereby establishing tropism. The microarray was set up within the Consortium for Functional Glycomics (CFG) ([20], and supplemental data). Binding of F17G (200 µg/mL) was detected using anti-F17G polyclonal rabbit IgG (10 µg/mL), followed by fluorescently labelled goat anti-rabbit polyclonal antibodies (IgG-488, 5 µg/mL).
(§4) A microarray presenting 264 different glycans (mammalian printed array version 2 from the CFG, experiment 400) was used to evaluate whether the F17G variant lectin domains differ in the range of glycan receptors that they can recognize, thereby establishing strain-dependent tropism. […] The glycan array screening has been repeated for F17aG only on printed array version 4.1 (experiment 2053) (Figure 1).
(§5) Printed array version 2 at the Consortium for Functional Glycomics was used for glycan array screening of the variant F17G receptor binding domains. Slides were printed, with six replicates for each glycan, using glycan spotting concentrations of 100 μM, at the Consortium Carbohydrate Synthesis/Protein Expression Core D located at the Scripps Research Institute onto Schott Nexterion H slides (Schott Cat. No. 1070936B). Slide conditioning: preprinted slides were soaked in deionized water for 5 minutes at room temperature and dried under a stream of nitrogen. TSM buffer (20 mM Tris-HCl, pH 7.4, or MOPS 20 mM; 150 mM NaCl; 2 mM CaCl2, 2 mM MgCl2) was used as wash buffer (TSM buffer + 0.05% Tween 20) or binding buffer (TSM buffer + 0.05% Tween 20 + 1% BSA). (1) F17G was diluted to 200 μg/mL (Figure 1) in TSM binding buffer. (2) 50 μL of F17G was applied to the printed surface and coverslipped. (3) The slide was incubated, protected from light, in a humidified chamber for 1 hour at RT. (4) The slide was washed once in TSM wash buffer. 50 μL of the anti-F17G (10 μg/mL) polyclonal rabbit IgG were applied, coverslipped and incubated for 1 h at RT. (5) The slide was washed once in TSM wash buffer. Fifty μL of fluorescently labelled secondary goat anti-rabbit polyclonal antibodies (IgG-488, 5 µg/mL) were applied, coverslipped and incubated for 1 h at RT. (6) Slide was removed, followed by the coverslip, and washed for 10 s each in TSM wash buffer, TSM wash buffer lacking Tween 20, and deionized water. The slide was dried under a stream of nitrogen. (7) The binding image was read in a Perkin Elmer Microscanarray XL4000 scanner and tiff file of image stored. (8) Image analysis was performed using Imagene (V.6) image analysis software. (9) Raw data results files were generated in Excel format and uploaded to the Consortium database as .dat files. (10) Imagene data was uploaded to the database as .txt files.

F17bG lectin domain = F17bG lectin domain (Escherichia coli, UniProt Q47200); conditions: CFG glycan array version 2; F17G at 200 µg/mL; SEM in parentheses
Chain of F17bG lectin domain (Q47200 23-199): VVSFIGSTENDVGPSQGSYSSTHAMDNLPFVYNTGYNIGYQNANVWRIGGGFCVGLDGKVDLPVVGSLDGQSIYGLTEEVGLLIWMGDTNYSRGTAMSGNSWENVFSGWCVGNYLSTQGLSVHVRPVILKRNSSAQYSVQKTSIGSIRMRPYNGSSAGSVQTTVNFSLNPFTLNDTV
Description: as §3, §4, §5

F17dG lectin domain = F17dG lectin domain (Escherichia coli, UniProt Q47199); conditions: CFG glycan array version 2; F17G at 200 µg/mL; SEM in parentheses
Chain of F17dG lectin domain (Q47199 23-199): as the sequence (Q99003 23-199) above, with L16P, D33N, R35G, K37N, H47R, K90N counted along it
Description: as §3, §4, §5

F17fG lectin domain = assay: CFG mammalian printed glycan array version 2 (experiment 400), F17fG; assay type: binding, Escherichia coli; conditions: CFG glycan array version 2; F17G at 200 µg/mL; SEM in parentheses
Text: as §2

[4] = read-out: Affinity range (Kd class), F17aG
[5] = read-out: Affinity range (Kd class), F17eG
[6] = SPR steady state, 25 °C, pH 7.4, read-out: Affinity range (Kd class), F17fG
[7] = Affinity range (Kd class), F17aG
[8] = good fit for at least three related experiments, read-out: dissociation constant Kd, F17aG
[9] = good fit for at least three related experiments, read-out: dissociation constant Kd, F17eG

T1 sequence (Q99003 23-199): as the sequence (Q99003 23-199) above

| Molecule | Kd [2, 5] | Relative Fluorescence Units (RFU), averaged over six replicates, F17eG (F17eG lectin domain) | Relative Fluorescence Units (RFU), averaged over six replicates, F17aG (F17aG lectin domain) | Relative Fluorescence Units (RFU), averaged over six replicates, F17bG (F17bG lectin domain) | Relative Fluorescence Units (RFU), averaged over six replicates, F17dG (F17dG lectin domain) | Relative Fluorescence Units (RFU), averaged over six replicates, F17fG (F17fG lectin domain) | other results |
| --- | --- | --- | --- | --- | --- | --- | --- |
| CC(=O)N[C@@H]1[C@@H](O)[C@H](O)[C@@H](COS(=O)(=O)O)O[C@H]1O [GlcNAc6SO3^−] | 1 to 10 mM | – | – | – | – | – | Kd [1, 4]: 10 to 100 mM; Kd [3, 6]: > 100 mM |
| CC(=O)N[C@@H]1[C@@H](O)[C@H](O)[C@@H](CO)O[C@H]1O [GlcNAc, N-acetylglucosamine] | – | – | – | – | – | – | Kd [1, 7]: 1 to 10 mM; Kd ([1]; dissociation constant Kd, F17aG, good fit for at least three related experiments): 1.2 mM; Kd [3]: 1 to 10 mM |
| CO[C@@H]1O[C@H](CO)[C@H](O)[C@H](O)[C@H]1O[C@@H]1O[C@H](CO)[C@@H](O)[C@H](O)[C@H]1NC(C)=O [GlcNAcβ1,2Gal, GlcNAc(β1-2)Galβ1OMe] | 1 to 10 mM | – | – | – | – | – | Kd [1, 8]: 4.2 mM; Kd [1, 4]: 1 to 10 mM; Kd [2, 9]: 2 mM |
| CC(=O)N[C@H]1[C@H](O[C@@H]2[C@@H](OC[C@H]3OC(O)[C@@H](O)[C@@H](O[C@H]4O[C@H](CO)[C@@H](O)[C@H](O)[C@@H]4O[C@@H]4O[C@H](CO)[C@@H](O)[C@H](O)[C@H]4NC(C)=O)[C@@H]3O)O[C@H](CO)[C@@H](O)[C@@H]2O)O[C@H](CO)[C@@H](O)[C@@H]1O (stereo partly drawn) [GlcNAcβ1,2Manα1,6(GlcNAcβ1,2Manα1,3)Man] | 1 to 10 mM | – | – | – | – | – | Kd [1, 8]: 3 mM; Kd [1, 4]: 1 to 10 mM; Kd [2, 9]: 3 mM |
| CO[C@@H]1O[C@H](CO)[C@H](O[C@@H]2O[C@H](CO)[C@@H](O)[C@H](O)[C@H]2NC(C)=O)[C@H](O)[C@H]1O [GlcNAcβ1,4Gal, GlcNAc(β1-4)Galβ1OMe] | 1 to 10 mM | – | – | – | – | – | Kd [1, 8]: 3.3 mM; Kd [1, 4]: 1 to 10 mM; Kd [2, 9]: 2.7 mM |
| CO[C@@H]1O[C@H](CO[C@@H]2O[C@H](CO)[C@@H](O)[C@H](O)[C@H]2NC(C)=O)[C@H](O)[C@H](O)[C@H]1O [GlcNAcβ1,6Gal, GlcNAc(β1-6)Galβ1OMe] | 1 to 10 mM | – | – | – | – | – | Kd [1, 8]: 2.8 mM; Kd [1, 4]: 1 to 10 mM; Kd [2, 9]: 3.8 mM |
| CC(=O)N[C@H]1[C@H]([C@H](O)[C@H](O)CO)OC(O)(C(=O)O)C[C@@H]1O (stereo partly drawn) [N-acetylneuraminic acid] | – | – | – | – | – | – | Kd [1, 7]: > 100 mM; Kd [3]: > 100 mM |
| GM1 ganglioside | – | – | – | – | – | – | Kd [3, 6]: > 100 mM |
| Galβ1,6GlcNAc | 1 to 10 mM | – | – | – | – | – | Kd [3, 6]: 10 to 100 mM |
| GlcNAcβ1,3Galβ1,4GlcNAcβ1,3Galβ1,4GlcNAcβ-Sp0 | – | 43,425 (4,065) RFU | 10,917 (811) RFU | 7,563 (2,744) RFU | 3,599 (772) RFU | 4,334 (856) RFU | – |
| GlcNAcβ1,3Galβ1,4Glcβ-Sp0 | – | 54,005 (5,715) RFU | 57,013 (5,191) RFU | 13,149 (2,286) RFU | 29,181 (3,281) RFU | 26,336 (7,255) RFU | – |
| GlcNAcβ1,4(GlcNAcβ1,6)GalNAcα-Sp8 | – | 38,200 (2,394) RFU | 4,520 (2,808) RFU | 12,960 (1,692) RFU | 1,680 (92) RFU | 19,830 (4,279) RFU | – |
| GlcNAcβ1,4Galβ1,4GlcNAcβ-Sp8 | – | 39,794 (6,245) RFU | 12,499 (1,921) RFU | 13,001 (2,039) RFU | 1,056 (190) RFU | 7,176 (2,338) RFU | – |
| GlcNAcβ1,6GalNAcα-Sp8 | – | 43,848 (4,140) RFU | 11,120 (1,871) RFU | 6,683 (947) RFU | 2,432 (406) RFU | 26,522 (11,365) RFU | – |
| GlcNAcβ1,6Galβ1,4GlcNAcβ-Sp8 | – | 40,973 (6,555) RFU | 9,029 (1,096) RFU | 5,372 (746) RFU | 5,119 (1,633) RFU | 2,269 (561) RFU | – |
| GlcNAcβ1-3Galβ1,4GlcNAcβ-Sp8 | – | 49,223 (5,377) RFU | 51,880 (5,023) RFU | 15,483 (1,729) RFU | 17,991 (4,401) RFU | 28,888 (6,925) RFU | – |
| Neu5Acα2,3(Neu5Acα2,6)GalNAcα-Sp8 | – | 1,229 (1,162) RFU | 4,527 (4,043) RFU | 4,331 (1,760) RFU | 1,388 (1,162) RFU | 1,717 (229) RFU | – |
| Neu5Acα2,3Galβ1,3(Neu5Acα2,6)GlcNAcβ1,3Gal β1,4Glc | – | – | – | – | – | – | Kd [3, 6]: > 100 mM |
| Neu5Acα2,3Galβ1,4GlcNAcβ1,2 Man | 10 to 100 mM | – | – | – | – | – | – |

Source: publication PMC3960879 (Biology, 2013)
